For one series, the target named is SHP-1 (Homo sapiens, UniProt P29350). Briefly: biochemical.
In the next series the target is T1, PTPα (Homo sapiens, UniProt P18433).
T1 construct: PTPα D1
The series is described as follows: PTPase inhibition, p-nitrophenyl phosphate substrate, Ki. Format: biochemical.

A further series deals with T2, LAR (Homo sapiens, UniProt P10586).
T2 sequence (P10586 1285-1907 limits assumed): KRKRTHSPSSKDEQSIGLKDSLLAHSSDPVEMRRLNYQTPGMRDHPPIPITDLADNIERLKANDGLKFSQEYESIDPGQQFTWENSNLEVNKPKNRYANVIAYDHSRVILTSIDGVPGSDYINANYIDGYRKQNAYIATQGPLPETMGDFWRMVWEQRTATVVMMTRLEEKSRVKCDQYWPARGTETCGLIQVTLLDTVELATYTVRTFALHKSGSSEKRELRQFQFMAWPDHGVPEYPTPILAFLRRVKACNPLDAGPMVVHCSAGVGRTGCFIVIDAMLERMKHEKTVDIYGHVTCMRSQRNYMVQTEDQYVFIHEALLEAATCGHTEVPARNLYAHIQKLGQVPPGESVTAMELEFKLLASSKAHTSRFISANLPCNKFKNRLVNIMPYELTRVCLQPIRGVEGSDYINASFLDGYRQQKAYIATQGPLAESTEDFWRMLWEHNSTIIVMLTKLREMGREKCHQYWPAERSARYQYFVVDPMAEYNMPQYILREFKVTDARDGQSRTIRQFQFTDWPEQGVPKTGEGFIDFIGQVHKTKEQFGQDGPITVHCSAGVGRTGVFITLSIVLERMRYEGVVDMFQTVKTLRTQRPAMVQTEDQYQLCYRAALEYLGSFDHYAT
The description is as above. The settings on record: pH 5.5; D1D2; read-out: Ki values, LAR D1D2. In kind it is biochemical.

Another series deals with T3, CD45 (Homo sapiens, UniProt P08575).
T3 sequence (P08575 599-1306 limits assumed): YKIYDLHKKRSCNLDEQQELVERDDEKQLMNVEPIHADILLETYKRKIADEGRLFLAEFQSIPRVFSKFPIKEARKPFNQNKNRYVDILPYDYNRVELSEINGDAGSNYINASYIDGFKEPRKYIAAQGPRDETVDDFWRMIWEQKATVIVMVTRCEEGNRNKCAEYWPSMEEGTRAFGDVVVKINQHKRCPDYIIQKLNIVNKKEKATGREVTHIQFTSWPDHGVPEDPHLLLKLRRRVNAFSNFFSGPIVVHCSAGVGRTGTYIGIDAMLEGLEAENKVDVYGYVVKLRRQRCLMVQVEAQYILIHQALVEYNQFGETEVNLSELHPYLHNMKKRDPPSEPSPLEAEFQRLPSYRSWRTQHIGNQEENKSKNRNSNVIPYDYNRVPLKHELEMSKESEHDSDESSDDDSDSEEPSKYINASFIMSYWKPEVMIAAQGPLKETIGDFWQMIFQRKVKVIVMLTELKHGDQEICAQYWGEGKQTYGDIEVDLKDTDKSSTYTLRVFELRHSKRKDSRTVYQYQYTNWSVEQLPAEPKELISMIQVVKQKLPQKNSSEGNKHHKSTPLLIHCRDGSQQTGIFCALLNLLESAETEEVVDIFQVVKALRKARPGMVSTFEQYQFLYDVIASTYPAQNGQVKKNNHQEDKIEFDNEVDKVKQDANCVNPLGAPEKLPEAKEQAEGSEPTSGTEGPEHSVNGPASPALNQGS
Described as above. Format: biochemical. The note with it: read-out: Ki values, CD45 D1D2.

For a further series, the target named is T4, PTPε (Homo sapiens, UniProt P23469).
T4 construct: PTPε D1
The series is described as above. Format: biochemical.

For another series, the target named is PTPβ (Homo sapiens, UniProt P23467). The series is described as above. In kind it is biochemical.
For a further series, the target named is T5, PTP1B (Homo sapiens, UniProt P18031).
T5 sequence (P18031 1-321): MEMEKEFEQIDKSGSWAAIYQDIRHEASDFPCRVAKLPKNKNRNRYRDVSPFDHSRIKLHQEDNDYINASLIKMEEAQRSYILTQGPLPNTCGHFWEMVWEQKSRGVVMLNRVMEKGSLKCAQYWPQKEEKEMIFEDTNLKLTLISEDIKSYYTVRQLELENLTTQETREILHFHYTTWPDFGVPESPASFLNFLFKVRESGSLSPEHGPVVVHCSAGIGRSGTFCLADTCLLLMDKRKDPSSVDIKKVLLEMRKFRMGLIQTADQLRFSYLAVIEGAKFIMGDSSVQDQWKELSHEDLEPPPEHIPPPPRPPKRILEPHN
The description is as above. Format: biochemical.

A short description of series [1]: pKa of the tetrahydropyridine ring. Format: physicochemical. The settings on record: positively charged tetrahydropyridine ring.
Where [2] appears, read: pH 5.5, D1, read-out: Ki values, PTPα D1.
[3] abbreviates: pH 5.5, D1, read-out: Ki values, PTPε D1.
[4] abbreviates: pH 5.5, read-out: Ki values, PTPβ.
[5] abbreviates: pH 5.5, read-out: Ki values, PTP1B.
Setting [6] is: pH 7, D1 (Table 3), read-out: Ki values, PTPα D1.
The mark [7] stands for this setting: pH 7, D1 (Table 3), read-out: Ki values, PTPε D1.
Where [8] appears, read: pH 7 (Table 3), read-out: Ki values, PTPβ.
Setting [9] is: pH 7 (Table 6), read-out: Ki, PTP α residue 48 Asn.
Setting [10] is: pH 7 (Table 6), read-out: Ki, PTP1B residue 48 Asp.
Setting [11] is: pH 7 (Table 6), read-out: Ki, PTP ε residue 48 Asn.
Where [12] appears, read: pH 7 (Table 6), read-out: Ki, PTP β residue 48 Asn.

Read-outs that look alike come from different tables or passages of the source.

Sequence of PTPβ (P23467 1703-1963 limits assumed): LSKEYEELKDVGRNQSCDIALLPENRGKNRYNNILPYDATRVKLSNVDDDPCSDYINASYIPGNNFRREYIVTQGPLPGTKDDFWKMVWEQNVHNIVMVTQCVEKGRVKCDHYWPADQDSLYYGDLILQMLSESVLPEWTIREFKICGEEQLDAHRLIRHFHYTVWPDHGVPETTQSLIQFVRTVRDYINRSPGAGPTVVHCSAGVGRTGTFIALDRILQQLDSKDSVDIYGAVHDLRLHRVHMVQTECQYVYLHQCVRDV
T4 sequence (P23469 135-394 limits assumed): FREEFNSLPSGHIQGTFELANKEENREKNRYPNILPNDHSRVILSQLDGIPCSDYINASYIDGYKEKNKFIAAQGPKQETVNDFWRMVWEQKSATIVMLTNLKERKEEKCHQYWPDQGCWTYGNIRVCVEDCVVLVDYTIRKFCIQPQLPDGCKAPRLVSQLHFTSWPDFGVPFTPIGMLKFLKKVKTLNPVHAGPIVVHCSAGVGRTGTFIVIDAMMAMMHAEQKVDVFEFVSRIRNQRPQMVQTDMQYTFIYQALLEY
Sequence of SHP-1 (P29350 whole entry): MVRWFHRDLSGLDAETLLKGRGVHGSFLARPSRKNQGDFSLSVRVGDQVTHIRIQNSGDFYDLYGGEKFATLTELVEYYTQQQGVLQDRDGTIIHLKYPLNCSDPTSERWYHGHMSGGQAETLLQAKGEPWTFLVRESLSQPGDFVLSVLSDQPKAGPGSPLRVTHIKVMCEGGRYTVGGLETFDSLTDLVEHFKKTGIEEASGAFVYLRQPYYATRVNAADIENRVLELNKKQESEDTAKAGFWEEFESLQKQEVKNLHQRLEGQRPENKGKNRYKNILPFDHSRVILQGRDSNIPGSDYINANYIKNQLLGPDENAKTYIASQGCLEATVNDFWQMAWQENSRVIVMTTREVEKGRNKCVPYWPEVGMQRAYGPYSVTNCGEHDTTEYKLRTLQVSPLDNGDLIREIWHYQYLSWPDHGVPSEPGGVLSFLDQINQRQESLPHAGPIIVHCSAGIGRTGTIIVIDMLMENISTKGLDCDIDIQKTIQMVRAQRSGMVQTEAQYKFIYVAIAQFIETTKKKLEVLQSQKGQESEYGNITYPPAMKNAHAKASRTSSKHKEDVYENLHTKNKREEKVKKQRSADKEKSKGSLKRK
T1 sequence (P18433 241-501 limits assumed): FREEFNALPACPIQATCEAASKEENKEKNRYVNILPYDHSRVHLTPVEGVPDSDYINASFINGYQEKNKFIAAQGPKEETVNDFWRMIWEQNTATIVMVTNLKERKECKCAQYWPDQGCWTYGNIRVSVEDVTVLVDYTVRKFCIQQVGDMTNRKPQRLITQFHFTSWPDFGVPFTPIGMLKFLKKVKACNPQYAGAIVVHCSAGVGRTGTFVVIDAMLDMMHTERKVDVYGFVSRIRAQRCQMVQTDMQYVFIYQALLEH
Method for CD45: (§1) The assay conditions are as follows. Appropriate concentrations of the compounds of the invention (e.g., 0.1 to 100 μM) are added to the reaction mixtures containing different concentrations of the substrate, p-nitrophenyl phosphate (range: 0.16 to 10 mM—final assay concentration). The buffer used was 50 mM HEPES pH 7.0, 100 mM sodium chloride, 0.1% (w/v) bovine serum albumin, 5 mM glutathione, and 1 mM EDTA. The reaction was started by addition of the enzyme and carried out in microtiter plates at 25° C. for 60 minutes. The reactions are stopped by addition of NaOH. […] The data are analyzed using nonlinear regression fit to classical Michaelis Menten enzyme kinetic models. Inhibition is expressed as Ki values in μM.
Method for LAR: The compounds are evaluated for biological activity with a truncated form of PTP1B (corresponding to the first 321 amino acids), which was expressed in E. coli and purified to apparent homogeneity using published procedures well-known to those skilled in the art. The enzyme reactions are carried out using standard conditions essentially as described by Burke et al. (Biochemistry 35; 15989–15996 (1996)) incorporated by reference. […] Appropriate concentrations of the compounds of the invention (e.g., 0.1 to 100 μM) are added to the reaction mixtures containing different concentrations of the substrate, p-nitrophenyl phosphate (range: 0.16 to 10 mM—final assay concentration). The buffer used was 50 mM HEPES pH 7.0, 100 mM sodium chloride, 0.1% (w/v) bovine serum albumin, 5 mM glutathione, and 1 mM EDTA. The reaction was started by addition of the enzyme and carried out in microtiter plates at 25° C. for 60 minutes. The reactions are stopped by addition of NaOH. The enzyme activity was determined by measurement of the absorbance at 405 nm with appropriate corrections for absorbance at 405 nm of the compounds and p-nitrophenyl phosphate. The data are analyzed using nonlinear regression fit to classical Michaelis Menten enzyme kinetic models. Inhibition is expressed as Ki values in μM.
Method for PTP1B: as §1
Method for PTPβ: as §1
Method for PTPε: as §1

For the compound `O=C(O)C(=O)Nc1sc2c(c1C(=O)O)CCCC2` [Example 2-OBTA], the Ki (as a rule, a dissociation constant, usually derived from enzyme kinetics or from competition with a known ligand) is 120 µM on SHP-1; 300 µM on PTPα (setting [2]); 400 µM at LAR; 40 µM on CD45 (pH 5.5, D1D2); 45 µM at PTPε (setting [3]); 14 µM on PTPβ (setting [4]).
`O=C(O)C(=O)Nc1sccc1C(=O)O` [Example 2-OTA, 2-(oxalyl-amino)-thiophene-3-carboxylic acid]: the Ki on SHP-1 is 60 µM; at PTPα (setting [2]), 1700 µM; on PTP1B (setting [5]), 62 µM; on LAR, more than 2000 µM; at CD45 (pH 5.5, D1D2) it was 70 µM; at PTPε (setting [3]), 590 µM. At PTPβ (setting [4]), the Ki was determined as 18 µM.
As for `O=C(O)C(=O)Nc1sc2c(c1C(=O)O)CCOC2` [Example 2-OTPA, 2-(Oxalyl-amino)-4,7-dihydro-thieno[2,3-c]pyran-3-carboxylic acid], the inhibitory constant (Ki) at PTPα (setting [2]) amounted to 270 µM; on PTPα (setting [6]) it was 1100 µM.
As to `O=C(O)C(=O)Nc1sc2c(c1C(=O)O)CCNC2` [Example 2-OTPyA, 2-(Oxalyl-amino)-4,5,6,7-tetrahydro-thieno[2,3-c]pyridine-3-carboxylic acid], in series [1], the pKa (usually the pH at which an ionisable group is half protonated) is more than 10. The Ki on SHP-1 is 900 µM; on PTPα (setting [2]), more than 2000 µM; on PTP1B (setting [5]), 0.3 µM; on LAR it was more than 2000 µM; at CD45 (pH 5.5, D1D2), 110 µM; on PTPε (setting [3]) it was 600 µM. Besides, the Ki at PTPβ (setting [4]) is 150 µM.
For the compound `O=C(O)C(=O)Nc1ccsc1C(=O)O` [Example 3-OTA, 3-(oxalyl-amino)-thiophene-2-carboxylic acid], the Ki at SHP-1 was more than 2000 µM; on PTPα (setting [2]), 500 µM; on PTP1B (setting [5]) it was 61 µM; at LAR, more than 2000 µM; on CD45 (pH 5.5, D1D2), 250 µM; at PTPε (setting [3]), 350 µM. At PTPβ (setting [4]), the Ki came out at 160 µM.
For the compound `O=C(O)C(=O)Nc1sc2c(c1C(=O)O)CC(CN1C(=O)c3cccc(O)c3C1=O)OC2` (centres unmarked) [Example 4, 5-(4-Hydroxy-1,3-dioxo-1,3-dihydro-isoindol-2-ylmethyl)-2-(oxalyl-amino)-4,7-dihydro-5H-thieno[2,3-c]pyran-3-carboxylic acid], the Ki turned out to be 93 µM on PTPα (setting [6]); 1.9 µM at PTP1B (pH 7 (Table 3), read-out: Ki values, PTP1B); 130 µM at CD45 (pH 7, D1D2 (Table 3)); 11 µM at PTPε (setting [7]); 1.1 µM at PTPβ (setting [8]).
`COc1ccc2c(c1)C(=O)N(CC1OCCc3c1sc(NC(=O)C(=O)O)c3C(=O)O)C2=O` (centres unmarked) [Example 26, 7-(5-Methoxy-1,3-dioxo-1,3-dihydro-isoindol-2-ylmethyl)-2-(oxalyl-amino)-4,7-dihydro-5H-thieno[2,3-c]pyran-3-carboxylic-acid]: the Ki at PTPα (setting [6]) amounted to 620 µM; at CD45 (pH 7, D1D2 (Table 3)) it was 380 µM; on PTPε (setting [7]) it was 330 µM; at PTPβ (setting [8]), 8.9 µM.
As to `CCOC(=O)N1Cc2sc(NC(=O)C(=O)O)c(C(=O)O)c2CC1CN1C(=O)c2ccccc2C1=O` (centres unmarked) [Example 48, 5-(1,3-Dioxo-1,3-dihydro-isoindol-2-ylmethyl)-2-(oxalyl-amino)-4,5,6,7-tetrahydro-thieno[2,3-c]pyridine-3,6-dicarboxylic acid 6-ethyl ester], the inhibition constant Ki worked out at 900 µM on PTPα (setting [9]), 0.25 µM at PTP1B (setting [10]), 380 µM on PTPε (setting [11]) and 47 µM at PTPβ (setting [12]).
`O=C(O)C(=O)Nc1sc2c(c1C(=O)O)CC(CN1C(=O)c3ccccc3C1=O)NC2` (centres unmarked) [Example 49, 5-(1,3-Dioxo-1,3-dihydro-isoindol-2-ylmethyl)-2-(oxalyl-amino)-4,5,6,7-tetrahydro-thieno[2,3-c]pyridine-3-carboxylic acid]: the figures for the Ki at PTP1B (setting [10]) and at PTPβ (setting [12]) were 0.085 µM and 8.6 µM, respectively.
For `O=C(O)C(=O)Nc1sc2c(c1C(=O)O)C[C@@H](CN1C(=O)c3ccccc3C1=O)NC2` [Example 50, (L)-5-(1,3-Dioxo-1,3-dihydro-isoindol-2-ylmethyl)-2-(oxalyl-amino)-4,5,6,7-tetrahydro-thieno[2,3-c]pyridine-3-carboxylic acid], the Ki on PTPα (setting [9]) was determined as 1000 µM; at PTP1B (setting [10]), 0.07 µM; on PTPβ (setting [12]) it was 8 µM.
In the case of `O=C(O)C(=O)Nc1sc2c(c1C(=O)O)CC(CN1C(=O)c3cccc(O)c3C1=O)NC2` (centres unmarked) [Example 52, 5-(4-Hydroxy-1,3-dioxo-1,3-dihydro-isoindol-2-ylmethyl)-2-(oxalyl-amino)-4,5,6,7-tetrahydro-thieno[2,3-c]pyridine-3-carboxylic acid], the Ki on PTPα (setting [9]) was more than 400 µM; at PTP1B (setting [10]), 1.2 µM; on PTPε (setting [11]) it was more than 500 µM; on PTPβ (setting [12]), 107 µM. At PTP1B, the “fold increase of affinity for PTP1B compared to 2-OTPyA” value is reported as “about 13 fold”.
Regarding `O=C(O)C(=O)Nc1ccccc1C(=O)O` [OBA, 2-(oxalyl-amino)-benzoic acid], the Ki on SHP-1 was 530 µM; on PTPα (setting [2]), 700 µM; at LAR it was more than 2000 µM; at CD45 (pH 5.5, D1D2) it was 160 µM; on PTPε (setting [3]) it was 125 µM; at PTPβ (setting [4]), 32 µM.
